Results: BindingDB's records for doi:10.1016/j.bmcl.2011.12.067 (Dalian University of Technology, 2012)

target: Epidermal growth factor receptor (Homo sapiens, UniProt P00533); assay: Inhibition of wild-type EGFR expressed using baculovirus expression system by ELISA
Sequence (P00533 whole entry): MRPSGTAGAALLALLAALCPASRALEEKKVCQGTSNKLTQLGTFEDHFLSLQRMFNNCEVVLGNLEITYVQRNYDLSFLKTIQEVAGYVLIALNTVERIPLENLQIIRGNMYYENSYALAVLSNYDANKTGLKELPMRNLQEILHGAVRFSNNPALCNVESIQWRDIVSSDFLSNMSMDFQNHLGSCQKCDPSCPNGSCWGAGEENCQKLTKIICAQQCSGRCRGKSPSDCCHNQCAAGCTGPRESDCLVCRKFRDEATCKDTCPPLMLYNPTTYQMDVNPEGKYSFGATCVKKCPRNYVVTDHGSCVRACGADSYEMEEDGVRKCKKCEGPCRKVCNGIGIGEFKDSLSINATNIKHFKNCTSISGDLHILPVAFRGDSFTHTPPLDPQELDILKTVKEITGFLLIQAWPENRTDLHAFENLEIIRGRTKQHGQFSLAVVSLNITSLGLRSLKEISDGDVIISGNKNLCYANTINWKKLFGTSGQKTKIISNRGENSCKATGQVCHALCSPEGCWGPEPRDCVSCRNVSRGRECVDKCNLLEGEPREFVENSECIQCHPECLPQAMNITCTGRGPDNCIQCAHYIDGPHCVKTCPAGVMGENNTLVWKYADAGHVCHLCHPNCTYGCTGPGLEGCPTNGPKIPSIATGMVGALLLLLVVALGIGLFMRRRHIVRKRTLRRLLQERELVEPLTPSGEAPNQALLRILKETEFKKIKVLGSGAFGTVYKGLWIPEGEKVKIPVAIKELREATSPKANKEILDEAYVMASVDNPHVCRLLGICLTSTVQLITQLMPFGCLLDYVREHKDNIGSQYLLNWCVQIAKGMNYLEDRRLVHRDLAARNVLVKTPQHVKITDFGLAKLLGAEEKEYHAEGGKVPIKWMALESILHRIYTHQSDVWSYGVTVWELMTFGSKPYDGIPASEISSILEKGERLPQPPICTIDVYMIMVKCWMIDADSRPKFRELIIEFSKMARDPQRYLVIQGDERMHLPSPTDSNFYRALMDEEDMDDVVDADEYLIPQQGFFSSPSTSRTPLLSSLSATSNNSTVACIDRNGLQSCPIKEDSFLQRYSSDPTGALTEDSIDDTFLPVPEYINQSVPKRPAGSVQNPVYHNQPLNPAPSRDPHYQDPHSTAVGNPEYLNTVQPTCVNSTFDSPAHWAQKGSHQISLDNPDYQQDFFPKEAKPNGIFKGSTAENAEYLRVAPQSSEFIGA

IC50 [µM] | Structure (SMILES)
> 100 | CNc1nc(N=NCc2ccc(OC)cc2)nc(Nc2ccccc2)n1
> 100 | Cn1cc(NC(=O)CN=O)c(=O)n1-c1ccccc1
> 100 | CNc1nc(N=NCc2ccc(O)cc2)nc(Nc2ccccc2)n1
